# Measurements taken from patent US9585877B2, “Methods of maintaining, treating or improving cognitive function” (Forum Pharmaceuticals, Inc., priority 2012, dated 2017).
# Tests used:
# Assay type in all cases: in vivo, human
# [1] = test system: subjects with mild-to-moderate Alzheimer's disease; assay: Clinical study, Controlled Oral Word Association Test (COWAT); conditions: 2 mg dose versus Placebo
# Procedure: (§1) A double-blind study of 3 doses of the Test Composition or placebo in subjects with mild-to-moderate Alzheimer's disease, with or without receiving a concomitant AChEI for 24 weeks (168 days) after a 7 day placebo run-in period.
# (§2) Total number of subjects in the safety population was 409 subjects that were dosed once-daily with a dosing-capsule for a period of 168 days. The subjects dosed, and the particular dosing, included: 104 subjects dosed with Placebo capsule; and 305 subjects dosed with Test Compound (104 subjects with 0.3 mg capsules; 101 subjects with 1 mg capsules; and 100 subjects with 2 mg capsules).
# The population included generally healthy male or female subjects, aged 50 to ≦85 years, with mild-to-moderate Alzheimer's disease, consistent with criteria defined by a Work Group of the National Institute of Neurological and Communicative Disorders and Stroke—Alzheimer's Disease and Related Disorders Association, of mild to moderate severity, with a Mini-Mental State Examination score (MMSE) 14 and ≦24, and a Clinical Dementia Rating Scale Sum of the Boxes (CDR-SB) score of 2. […]
# The COWAT test includes (1) asking the subject to name words beginning with a specific letter (e.g., F, A, S), (2) each of 3 trials is timed for 60 seconds, and (3) the score is calculated by the number of new words beginning with the assigned letter.
# [2] = test system: subjects with mild-to-moderate Alzheimer's disease; assay: Responder analysis: PK/PD effects (ADAS-Cog)
# Source text: The response by plasma level of Test Compound was also investigated. A ‘responder’ definition of >3 pt ADAS-Cog effect was utilized. The plasma levels of responders and nonresponders informed a logistic regression model. […] FIG. 12 illustrates the mean plasma concentration levels (including the 95% confidence levels and the measured extremes) of Test Compound, and FIG. 13 illustrates the Exposure Response analysis, using plasma concentration levels of Test Compound and ADAS-Cog-13 changes. The relationship between dose and likelihood of clinical response, as defined by either an ADAS-Cog effect ≧3 points, or ≧2 points, is summarized in Table 19: […]
# [3] = test system: subjects with mild-to-moderate Alzheimer's disease; assay: Clinical study, Mini-Mental State Examination (MMSE)
# Procedure: as §1, §2
# (§3) The population included generally healthy male or female subjects, aged 50 to ≦85 years, with mild-to-moderate Alzheimer's disease, consistent with criteria defined by a Work Group of the National Institute of Neurological and Communicative Disorders and Stroke—Alzheimer's Disease and Related Disorders Association, of mild to moderate severity, with a Mini-Mental State Examination score (MMSE) 14 and ≦24, and a Clinical Dementia Rating Scale Sum of the Boxes (CDR-SB) score of 2. […] Subjects were required to be either receiving a stable dose of an AChEI (donepezil or rivastigmine) for at least 3 months before screening or not presently being treated with an AChEI or mementine for at least 30 days.
# (§4) Subjects with mild to moderate Alzheimer's disease receiving stable treatment with an AChEI (donepezil or rivastigmine: ‘add-on’ subjects) or not receiving an AChEI (de novo subjects′) received 0.3, 1, or 2 mg doses of Test Composition or placebo for up to 24 weeks (168 days) of double-blind treatment, after a 7-day single-blind, placebo run-in period to assess study drug compliance. A follow-up telephone contact was conducted approximately 15 days after the last dose of study drug for questions regarding safety.
# Mini-Mental State Examination (MMSE)
# The MMSE test employed herein is based on the procedure developed by Folstein, M., Folstein, S., McHugh, P. Mini-Mental State: “A Practical Method for Grading the Cognitive State of Patients for the Clinician”; Journal of Psychiatric Research 1975, 12:189-98.
# The MMSE test assesses and/or evaluates memory, orientation, recognition, attention, concentration, language, and praxis. The MMSE total score ranges from 0 to 30 points. Lower scores indicate a lower level of functioning. An increase from baseline indicates improvement.
# [4] = test system: subjects with mild-to-moderate Alzheimer's disease; assay: Clinical study, ADAS-Cog-13
# Procedure: as §1, §2, §3, §4
# Cognitive Part of the Alzheimer's Disease Assessment Scale (ADAS-Cog-13)
# The ADAS-Cog-13 is identical to the ADAS-Cog-11 assessment group (see above), with the addition of test items: Delayed Word Recall, and Digit (Number) Cancellation.
# The ADAS-cog-13 total score ranges from 0 to 85 (higher scores indicate more severe impairment). A decrease from baseline indicates improvement.
structure (smiles),measurement,setting,value
"Cl.O.O=C(N[C@H]1CN2CCC1CC2)c1cc2cccc(Cl)c2s1 [Test Compound, (R)-7-chloro-N-(quinuclidin-3-yl)benzo[b]thiophene-2-carboxamide, hydrochloride, monohydrate]",COWAT Effect Size,[1],0.35
same,"Responders, ADAS-Cog (≧2 points)",[2]; 0.3 mg,31%
same,"Responders, ADAS-Cog (≧3 points)",[2]; 0.3 mg,25%
same,"Responders, ADAS-Cog (≧2 points)",[2]; 1 mg,33%
same,"Responders, ADAS-Cog (≧3 points)",[2]; 1 mg,28%
same,"Responders, ADAS-Cog (≧2 points)",[2]; 2 mg,51%
same,"Responders, ADAS-Cog (≧3 points)",[2]; 2 mg,45%
same,Relationship of plasma level and likelihood of being a responder,"[2]; responder >3 pt ADAS-Cog effect, logistic regression model, p=0.003",significant plasma level/exposure response relationship exists
same,MMSE (Baseline was assigned the value of zero @ Week 0),"[3]; 0.3 mg daily dose, Week 4",−0.0411
same,MMSE (Baseline was assigned the value of zero @ Week 0),"[3]; 0.3 mg daily dose, Week 12",0.185
same,MMSE (Baseline was assigned the value of zero @ Week 0),"[3]; 0.3 mg daily dose, Week 18",−0.3601
same,MMSE (Baseline was assigned the value of zero @ Week 0),"[3]; 0.3 mg daily dose, Week 23",−0.3112
same,MMSE (Baseline was assigned the value of zero @ Week 0),"[3]; 1 mg daily dose, Week 4",0.9142
same,MMSE (Baseline was assigned the value of zero @ Week 0),"[3]; 1 mg daily dose, Week 12",0.7836
same,MMSE (Baseline was assigned the value of zero @ Week 0),"[3]; 1 mg daily dose, Week 18",0.7253
same,MMSE (Baseline was assigned the value of zero @ Week 0),"[3]; 1 mg daily dose, Week 23",0.4416
same,MMSE (Baseline was assigned the value of zero @ Week 0),"[3]; 2 mg daily dose, Week 4",0.5262
same,MMSE (Baseline was assigned the value of zero @ Week 0),"[3]; 2 mg daily dose, Week 12",0.3526
same,MMSE (Baseline was assigned the value of zero @ Week 0),"[3]; 2 mg daily dose, Week 18",0.723
same,MMSE (Baseline was assigned the value of zero @ Week 0),"[3]; 2 mg daily dose, Week 23",0.5139
same,MMSE Effect Size,[3]; 2 mg dose versus Placebo,0.21
same,ADAS-Cog-13 (Baseline was assigned the value of zero @ Week 0),"[4]; 0.3 mg daily dose, Week 4",−0.615
same,ADAS-Cog-13 (Baseline was assigned the value of zero @ Week 0),"[4]; 0.3 mg daily dose, Week 12",−0.5876
same,ADAS-Cog-13 (Baseline was assigned the value of zero @ Week 0),"[4]; 0.3 mg daily dose, Week 18",−0.3132
same,ADAS-Cog-13 (Baseline was assigned the value of zero @ Week 0),"[4]; 0.3 mg daily dose, Week 23",0.0915
same,ADAS-Cog-13 (Baseline was assigned the value of zero @ Week 0),"[4]; 1 mg daily dose, Week 4",−0.8012
same,ADAS-Cog-13 (Baseline was assigned the value of zero @ Week 0),"[4]; 1 mg daily dose, Week 12",−1.2029
same,ADAS-Cog-13 (Baseline was assigned the value of zero @ Week 0),"[4]; 1 mg daily dose, Week 18",−0.3222
same,ADAS-Cog-13 (Baseline was assigned the value of zero @ Week 0),"[4]; 1 mg daily dose, Week 23",−0.0565
same,ADAS-Cog-13 (Baseline was assigned the value of zero @ Week 0),"[4]; 2 mg daily dose, Week 4",−0.0185
same,ADAS-Cog-13 (Baseline was assigned the value of zero @ Week 0),"[4]; 2 mg daily dose, Week 12",−1.4328
same,ADAS-Cog-13 (Baseline was assigned the value of zero @ Week 0),"[4]; 2 mg daily dose, Week 18",−1.6593
same,ADAS-Cog-13 (Baseline was assigned the value of zero @ Week 0),"[4]; 2 mg daily dose, Week 23",−1.6899
same,ADAS-Cog 13 Effect Size,[4]; 2 mg dose versus Placebo,0.39
same,ADAS-Cog-13 (Baseline was assigned the value of zero @ Week 0),"[4]; Add-On patients (stable donepezil or rivastigmine), 0.3 mg daily dose, Week 4",−0.9985
same,ADAS-Cog-13 (Baseline was assigned the value of zero @ Week 0),"[4]; Add-On patients (stable donepezil or rivastigmine), 0.3 mg daily dose, Week 12",−0.2474
same,ADAS-Cog-13 (Baseline was assigned the value of zero @ Week 0),"[4]; Add-On patients (stable donepezil or rivastigmine), 0.3 mg daily dose, Week 18",−0.4557
same,ADAS-Cog-13 (Baseline was assigned the value of zero @ Week 0),"[4]; Add-On patients (stable donepezil or rivastigmine), 0.3 mg daily dose, Week 23",0.2752
same,ADAS-Cog-13 (Baseline was assigned the value of zero @ Week 0),"[4]; Add-On patients (stable donepezil or rivastigmine), 1 mg daily dose, Week 4",−1.0728
same,ADAS-Cog-13 (Baseline was assigned the value of zero @ Week 0),"[4]; Add-On patients (stable donepezil or rivastigmine), 1 mg daily dose, Week 12",−0.0705
same,ADAS-Cog-13 (Baseline was assigned the value of zero @ Week 0),"[4]; Add-On patients (stable donepezil or rivastigmine), 1 mg daily dose, Week 18",0.6239
same,ADAS-Cog-13 (Baseline was assigned the value of zero @ Week 0),"[4]; Add-On patients (stable donepezil or rivastigmine), 1 mg daily dose, Week 23",1.4205
same,ADAS-Cog-13 (Baseline was assigned the value of zero @ Week 0),"[4]; Add-On patients (stable donepezil or rivastigmine), 2 mg daily dose, Week 4",−0.455
same,ADAS-Cog-13 (Baseline was assigned the value of zero @ Week 0),"[4]; Add-On patients (stable donepezil or rivastigmine), 2 mg daily dose, Week 12",−0.9708
same,ADAS-Cog-13 (Baseline was assigned the value of zero @ Week 0),"[4]; Add-On patients (stable donepezil or rivastigmine), 2 mg daily dose, Week 18",−1.8659
same,ADAS-Cog-13 (Baseline was assigned the value of zero @ Week 0),"[4]; Add-On patients (stable donepezil or rivastigmine), 2 mg daily dose, Week 23",−1.1679
same,ADAS-Cog-13 (Baseline was assigned the value of zero @ Week 0),"[4]; de novo patients, 0.3 mg daily dose, Week 4",−0.545
same,ADAS-Cog-13 (Baseline was assigned the value of zero @ Week 0),"[4]; de novo patients, 0.3 mg daily dose, Week 12",−1.0759
same,ADAS-Cog-13 (Baseline was assigned the value of zero @ Week 0),"[4]; de novo patients, 0.3 mg daily dose, Week 18",−0.4416
same,ADAS-Cog-13 (Baseline was assigned the value of zero @ Week 0),"[4]; de novo patients, 0.3 mg daily dose, Week 23",−0.3226
same,ADAS-Cog-13 (Baseline was assigned the value of zero @ Week 0),"[4]; de novo patients, 1 mg daily dose, Week 4",−0.5942
same,ADAS-Cog-13 (Baseline was assigned the value of zero @ Week 0),"[4]; de novo patients, 1 mg daily dose, Week 12",−2.311
same,ADAS-Cog-13 (Baseline was assigned the value of zero @ Week 0),"[4]; de novo patients, 1 mg daily dose, Week 18",−1.2239
same,ADAS-Cog-13 (Baseline was assigned the value of zero @ Week 0),"[4]; de novo patients, 1 mg daily dose, Week 23",−1.4169
same,ADAS-Cog-13 (Baseline was assigned the value of zero @ Week 0),"[4]; de novo patients, 2 mg daily dose, Week 4",0.3542
same,ADAS-Cog-13 (Baseline was assigned the value of zero @ Week 0),"[4]; de novo patients, 2 mg daily dose, Week 12",−1.9196
same,ADAS-Cog-13 (Baseline was assigned the value of zero @ Week 0),"[4]; de novo patients, 2 mg daily dose, Week 18",−1.5539
same,ADAS-Cog-13 (Baseline was assigned the value of zero @ Week 0),"[4]; de novo patients, 2 mg daily dose, Week 23",−2.2283
